Laboratory results as given in ChEMBL document CHEMBL5537201, “Discovery of Unique Bis-Substituted Aromatic Amide Derivatives as Novel Highly Potent Antibiotics for Combating Methicillin-Resistant Staphylococcus aureus (MRSA)” (J Med Chem, 2024).
Converted amounts (≈) assume the structure as drawn. The source made the active and inactive calls. No cut-off for these calls is given here.

Columns and labels:
Staphylococcus aureus [1] = assay: Induction of membrane morphological changes in Staphylococcus aureus ATCC6538 assessed as cell rupture at 5 times of MIC measured after 0.5 hrs by FE-SEM analysis; type: functional, organism-based
Cell membrane [2] = assay: Induction of inner membrane permeabilization in methicillin resistant Staphylococcus aureus clinical isolate MRS153 assessed as increase in blue fluorescence at 5 ug/ml by DAPI staining based analysis; type: cell membranes; conditions: dose 5.0 µg/ml
[3] = Binding affinity to Staphylococcus aureus ATCC6538 Cardiolipin assessed as dissociation constant by ITC analysis
Staphylococcus aureus [4] = assay: Antimicrobial activity against methicillin resistant Staphylococcus aureus clinical isolate MRS70 assessed as reduction in bacterial growth incubated for 24 hrs by two-fold broth dilution method; type: functional
Staphylococcus aureus [5] = assay: Antimicrobial activity against Staphylococcus aureus ATCC6538 assessed as increase in ROS levels measured upto 180 mins in presence of chloramphenicol by H2DCFDA probe based flow cytometry; type: functional, organism-based
[6] = Toxicity in BALB/c mouse assessed as as effect on heart at 25 to 50 mg/kg, iv by H and E staining based analysis; type: organism-based; conditions: in vivo, dose 25-50 mg/kg
[7] = Toxicity in BALB/c mouse assessed as as effect on liver at 25 to 50 mg/kg, iv by H and E staining based analysis; type: organism-based; conditions: in vivo, dose 25-50 mg/kg
Peptidoglycan = assay: Binding affinity to Staphylococcus aureus ATCC6538 peptidoglycan assessed as change in MIC at upto 256 ug/ml measured after 22 hrs; conditions: dose <= 256.0 µg/ml
[8] = Toxicity in BALB/c mouse assessed as as effect on spleen at 25 to 50 mg/kg, iv by H and E staining based analysis; type: organism-based; conditions: in vivo, dose 25-50 mg/kg
Cell membrane [9] = assay: Induction of inner membrane permeabilization in Staphylococcus aureus ATCC6538 assessed as increase in red fluorescence at 5 ug/ml by PI staining based analysis; type: cell membranes; conditions: dose 5.0 µg/ml
Staphylococcus aureus [10] = assay: Antimicrobial activity against methicillin resistant Staphylococcus aureus clinical isolate MRS152 assessed as reduction in bacterial growth incubated for 24 hrs by two-fold broth dilution method; type: functional
[11] = Toxicity in BALB/c mouse assessed as as effect on kidney at 25 to 50 mg/kg, iv by H and E staining based analysis; type: organism-based; conditions: in vivo, dose 25-50 mg/kg
Staphylococcus aureus [12] = assay: Antimicrobial activity against methicillin resistant Staphylococcus aureus clinical isolate MRS153 assessed as membrane fluidity measured after 35 mins; type: functional, organism-based
Staphylococcus aureus [13] = assay: Bactericidal activity against methicillin-resistant Staphylococcus aureus clinical isolate MRS1 at 5 ug/ml measured upto 150 mins; type: functional, organism-based; conditions: dose 5.0 µg/ml
Staphylococcus aureus [14] = assay: Antimicrobial activity against methicillin resistant Staphylococcus aureus clinical isolate MRS153 assessed as increase in ROS levels measured upto 180 mins in presence of chloramphenicol by H2DCFDA probe based flow cytometry; type: functional, organism-based
Staphylococcus aureus [15] = assay: Bactericidal activity against methicillin-resistant Staphylococcus aureus clinical isolate MRS153 at 5 ug/ml measured upto 150 mins; type: functional, organism-based; conditions: dose 5.0 µg/ml
Cell membrane [16] = assay: Induction of inner membrane permeabilization in Staphylococcus aureus ATCC6538 assessed as increase in blue fluorescence at 5 ug/ml by DAPI staining based analysis; type: cell membranes; conditions: dose 5.0 µg/ml
Staphylococcus aureus [17] = assay: Antimicrobial activity against methicillin resistant Staphylococcus aureus clinical isolate MRS84 assessed as reduction in bacterial growth incubated for 24 hrs by two-fold broth dilution method; type: functional
Staphylococcus aureus [18] = assay: Antimicrobial activity against methicillin resistant Staphylococcus aureus clinical isolate MRS153 assessed as reduction in bacterial growth incubated for 24 hrs by two-fold broth dilution method; type: functional
Staphylococcus hominis = assay: Antimicrobial activity against methicillin-resistant Staphylococcus hominis assessed as reduction in bacterial growth incubated for 24 hrs by two-fold broth dilution method; type: functional
A549 = assay: Cytotoxicity against human A549 cells assessed as reduction in cell viability measured after 24 hrs by CCK-8 method; type: functional, cell-based; conditions: A549, 24 h
[19] = Toxicity in BALB/c mouse assessed as as change in BUN level at 25 to 50 mg/kg, iv; type: organism-based; conditions: in vivo, dose 25-50 mg/kg
Staphylococcus aureus [20] = assay: In vivo antibacterial activity against methicillin-resistant Staphylococcus aureus clinical isolate MRS153 infected in C57BL/6N mouse model assessed as reduction in bacterial load in spleen at 3.125 to 12.5 mg/kg, iv measured after 24 hrs; type: functional, organism-based; conditions: dose 3.125-12.5 mg/kg
Staphylococcus aureus [21] = assay: Antibiofilm activity against Staphylococcus aureus ATCC6538 assessed as reduction in biofilm formation at 1 to 32 ug/ml incubated for 20 to 22 hrs by crystal violet staining based analysis; type: functional, organism-based; conditions: dose 1-32 µg/ml, time 20-22 hrs
Cell membrane [22] = assay: Induction of Outer membrane disruption in methicillin resistant Staphylococcus aureus clinical isolate MRS153 assessed as […] in fluorescence intensity measured upto 30 mins by NPN dye based fluorescence analysis; type: cell membranes
Staphylococcus aureus [23] = assay: Induction of membrane morphological changes in Staphylococcus aureus ATCC6538 assessed as formation of cell pit at 5 times of MIC measured after 0.5 hrs by FE-SEM analysis; type: functional, organism-based
[24] = Cytotoxicity against HEK293 cells assessed as reduction in cell viability measured after 24 hrs by CCK-8 method; type: toxicity, cell-based; conditions: human
Staphylococcus aureus [25] = assay: Induction of membrane morphological changes in Staphylococcus aureus ATCC6538 assessed as cell surface wrinkling at 5 times of MIC measured after 0.5 hrs by FE-SEM analysis; type: functional, organism-based
Staphylococcus aureus [26] = assay: In vivo antibacterial activity against methicillin-resistant Staphylococcus aureus clinical isolate MRS153 infected in C57BL/6N mouse model assessed as reduction in bacterial load in lung at 3.125 to 12.5 mg/kg, iv measured after 24 hrs; type: functional, organism-based; conditions: dose 3.125-12.5 mg/kg
Cell membrane [27] = assay: Induction of inner membrane permeabilization in methicillin resistant Staphylococcus aureus clinical isolate MRS153 assessed as increase in […] fluorescence at 5 ug/ml by PI staining based analysis; type: cell membranes; conditions: dose 5.0 µg/ml
Staphylococcus aureus [28] = assay: Binding affinity to Staphylococcus aureus ATCC6538 Phosphatidylglycerol assessed as change in MIC at upto 256 ug/ml measured after 22 hrs; conditions: dose <= 256.0 µg/ml
Staphylococcus aureus [29] = assay: In vivo antibacterial activity against methicillin-resistant Staphylococcus aureus clinical isolate MRS153 infected in C57BL/6N mouse model assessed as reduction in bacterial load in kidney at 3.125 to 12.5 mg/kg, iv measured after 24 hrs; type: functional, organism-based; conditions: dose 3.125-12.5 mg/kg
[30] = Selectivity index, ratio of IC50 for African green monkey Vero E6 cells to MIC for Staphylococcus aureus ATCC6538; type: toxicity; conditions: read-out: Selectivity Index
[31] = Cytotoxicity against human HaCaT cells assessed as reduction in cell viability measured after 24 hrs by CCK-8 method; type: toxicity, cell-based
Staphylococcus aureus [32] = assay: Antimicrobial activity against methicillin resistant Staphylococcus aureus clinical isolate MRS207 assessed as reduction in bacterial growth incubated for 24 hrs by two-fold broth dilution method; type: functional
[33] = Cytotoxicity against African green monkey Vero E6 cells assessed as reduction in cell viability measured after 24 hrs by CCK-8 method; type: toxicity, cell-based, Chlorocebus sabaeus, Vero C1008
Cell membrane [34] = assay: Induction of inner membrane permeabilization in Staphylococcus aureus ATCC6538 assessed as disruption of cell membrane by measuring rightward shift measured after by PI staining based flow cytometry analysis; type: cell membranes
Staphylococcus aureus [35] = assay: In vivo antibacterial activity against methicillin-resistant Staphylococcus aureus clinical isolate MRS153 infected in C57BL/6N mouse model assessed as reduction in bacterial load in liver at 3.125 to 12.5 mg/kg, iv measured after 24 hrs; type: functional, organism-based; conditions: dose 3.125-12.5 mg/kg

## O=C(CCC(F)(F)F)N(Cc1cc2ccccc2s1)c1cc(-c2noc(C(F)(F)F)n2)ccc1O
Staphylococcus aureus [1]
  Activity: Active
Cell membrane [2]
  Activity: Active
[3]
  Kd: 5.75 µM
Staphylococcus aureus [4]
  MIC: 1 µg/mL (≈ 1.94 µM)
Staphylococcus aureus [5]
  Activity: inactive
[6]
  Activity: Non-Toxic
[7]
  Activity: Non-Toxic
Peptidoglycan
  Activity: inactive
[8]
  Activity: Non-Toxic
Cell membrane [9]
  Activity: Active
Staphylococcus aureus [10]
  MIC: 1 µg/mL (≈ 1.94 µM)
[11]
  Activity: Non-Toxic
Staphylococcus aureus [12]
  Activity: Active
Staphylococcus aureus [13]
  Activity: Active
Staphylococcus aureus [14]
  Activity: inactive
Staphylococcus aureus [15]
  Activity: Active
Cell membrane [16]
  Activity: Active
Staphylococcus aureus [17]
  MIC: 2 µg/mL (≈ 3.88 µM)
Staphylococcus aureus [18]
  MIC: 1 µg/mL (≈ 1.94 µM)
Staphylococcus hominis
  MIC: 1 µg/mL (≈ 1.94 µM)
A549
  IC50: 16.8 µg/mL (≈ 32.7 µM)
[19]
  Activity: Non-Toxic
Staphylococcus aureus [20]
  Activity: Active
Staphylococcus aureus [21]
  Activity: Active
Cell membrane [22]
  Activity: Dose-Dependent Effect
Staphylococcus aureus [23]
  Activity: Active
[24]
  IC50 at 24 h: 16.9 µg/mL (≈ 32.8 µM)
Staphylococcus aureus [25]
  Activity: Active
Staphylococcus aureus [26]
  Activity: Active
Cell membrane [27]
  Activity: Active
Staphylococcus aureus [28]
  Activity: inactive
Staphylococcus aureus [29]
  Activity: Active
[30]
  selectivity ratio: > 100
[31]
  IC50 at 24 h: > 25 µg/mL
Staphylococcus aureus [32]
  MIC: 1 µg/mL (≈ 1.94 µM)
[33]
  IC50 at 24 h: > 25 µg/mL
Cell membrane [34]
  Activity: Active
Staphylococcus aureus [35]
  Activity: Active
